For 32 compounds, IC50 results are on record in US20050197338A1, “Substituted pyrazole urea compounds for the treatment of inflammation” (priority 2003, published 2005).

This assay concerns the target T1, human IKK-2 (rhIKK-2 homodimer) (Homo sapiens, UniProt O14920).
T1 construct: FLAG (DYKDDDDKD) (C); made in house; host or cells: insect cells (baculovirus, pFastBac)
T1 sequence (O14920 1-756): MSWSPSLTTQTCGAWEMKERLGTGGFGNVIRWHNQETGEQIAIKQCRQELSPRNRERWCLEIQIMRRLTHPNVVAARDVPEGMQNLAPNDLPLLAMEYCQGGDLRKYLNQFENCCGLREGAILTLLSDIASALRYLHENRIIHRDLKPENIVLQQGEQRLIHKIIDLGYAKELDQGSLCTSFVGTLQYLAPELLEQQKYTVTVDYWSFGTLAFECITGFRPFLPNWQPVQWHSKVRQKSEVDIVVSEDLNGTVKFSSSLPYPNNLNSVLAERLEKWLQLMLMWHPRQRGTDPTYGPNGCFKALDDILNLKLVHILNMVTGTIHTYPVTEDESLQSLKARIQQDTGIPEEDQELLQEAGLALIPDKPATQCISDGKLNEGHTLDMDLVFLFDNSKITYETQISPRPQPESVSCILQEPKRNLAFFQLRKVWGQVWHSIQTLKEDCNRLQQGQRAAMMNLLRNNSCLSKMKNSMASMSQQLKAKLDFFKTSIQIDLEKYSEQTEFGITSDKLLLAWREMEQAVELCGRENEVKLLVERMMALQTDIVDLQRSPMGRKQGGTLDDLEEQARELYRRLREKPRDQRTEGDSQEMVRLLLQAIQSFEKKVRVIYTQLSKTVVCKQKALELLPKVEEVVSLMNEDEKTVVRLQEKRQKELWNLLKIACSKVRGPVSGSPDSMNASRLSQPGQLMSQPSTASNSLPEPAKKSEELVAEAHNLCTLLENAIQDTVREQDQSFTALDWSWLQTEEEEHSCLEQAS
Nature of the assay: IKK-2 Resin Enzyme Assay (Human IKK-2 Enzyme Assay). Type of assay: biochemical. The note with it: human IKK-2, resin enzyme assay; read-out: IC50 (μM) hIKK-2. The essentials: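 C-terminally FLAG-tagged human IKK-2 homodimer, baculovirus-expressed in insect cells and anti-FLAG purified. Reaction mix: 5 μM biotinylated IκBα peptide (Ser32/Ser36 region), 1 μM ATP with [γ-33P]ATP, 2 mM MgCl2, 2 mM MnCl2, 10 mM NaF, 1 mM DTT, 25 mM HEPES pH 7.6. Incubated 30 min at 25 °C; IC50 derived.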

As to `NC(=O)Nc1cn(-c2ccc(-c3ccc(C(=O)Nc4ccccn4)cc3)cc2)nc1C(N)=O` [Example 33, 4-[(aminocarbonyl)amino]-1-{4′-[(pyridin-2-ylamino)carbonyl]-1,1′-biphenyl-4-yl}-1H-pyrazole-3-carboxamide], the IC50 turned out to be 0.89 µM.

Consider `NC(=O)Nc1cn(-c2ccc(-c3ccc(C(=O)NCc4ccc(F)cc4)c(F)c3)cc2)nc1C(N)=O` [Example 155, 4-[(aminocarbonyl)amino]-1-(3′-fluoro-4′-{[(4-fluorobenzyl)amino]carbonyl}-1,1′-biphenyl-4-yl)-1H-pyrazole-3-carboxamide], for which the IC50 worked out at 0.45 µM.

Turning to `NC(=O)Nc1cn(-c2cccc(-c3ccc(F)c(Cl)c3)c2)nc1C(N)=O` [Example 361, 4-[(aminocarbonyl)amino]-1-(3′-chloro-4′-fluoro-1,1′-biphenyl-3-yl)-1H-pyrazole-3-carboxamide], the IC50 was over 20 µM.

With `CSc1cccc(-c2cccc(-n3cc(NC(N)=O)c(C(N)=O)n3)c2)c1` [Example 357, 4-[(aminocarbonyl)amino]-1-[3′-(methylthio)-1,1′-biphenyl-3-yl]-1H-pyrazole-3-carboxamide], the IC50 was over 20 µM.

Take `NC(=O)Nc1cn(-c2cccc(-c3ccc(C(=O)NC4CC4)cc3)c2)nc1C(N)=O` [Example 80, 4-[(aminocarbonyl)amino]-1-{4′-[(cyclopropylamino)carbonyl]-1,1′-biphenyl-3-yl}-1H-pyrazole-3-carboxamide]: the IC50 worked out at 0.6 µM.

As for `CCOc1ccc(-c2cccc(-n3cc(NC(N)=O)c(C(N)=O)n3)c2)cc1` [Example 355, 4-[(aminocarbonyl)amino]-1-(4′-ethoxy-1,1′-biphenyl-3-yl)-1H-pyrazole-3-carboxamide], the IC50 was 6.15 µM.

In the case of `CCOC(=O)c1cccc(-c2ccc(-n3cc(NC(N)=O)c(C(N)=O)n3)cc2)c1` [Example 144, ethyl 4′-{3-(aminocarbonyl)-4-[(aminocarbonyl)amino]-1H-pyrazol-1-yl}-1,1′-biphenyl-3-carboxylate], the IC50 came to 5.05 µM.

Take `COc1ccccc1CNC(=O)c1ccc(-c2ccc(-n3cc(NC(N)=O)c(C(N)=O)n3)cc2)cc1F` [Example 154, 4-[(aminocarbonyl)amino]-1-(3′-fluoro-4′-{[(2-methoxybenzyl)amino]carbonyl}-1,1′-biphenyl-4-yl)-1H-pyrazole-3-carboxamide]: the IC50 was 0.26 µM.

As for `NC(=O)Nc1cn(-c2ccc(Sc3ccc(F)cc3)cc2)nc1C(N)=O` [Example 196, 1-(1-(4-(4-fluorophenylthio)phenyl)-3-carbamoyl-1H-pyrazol-4-yl)urea], the IC50 came out at 0.718 µM.

For the compound `N#CCc1cccc(-c2ccc(-n3cc(NC(N)=O)c(C(N)=O)n3)cc2)c1` [Example 27, 4-[(aminocarbonyl)amino]-1-[3′-(cyanomethyl)-1,1′-biphenyl-4-yl]-1H-pyrazole-3-carboxamide], the concentration for half-maximal inhibition (IC50) worked out at 1.36 µM.

Turning to `NC(=O)Nc1cn(-c2ccc([S+]([O-])c3ccc(F)cc3)cc2)nc1C(N)=O` (centres unmarked) [Example 200, 1-(1-(4-(4-fluorophenylsulfinyl)phenyl)-3-carbamoyl-1H-pyrazol-4-yl)urea], the IC50 is 0.326 µM.

As for `CCOc1cc(-n2cc(NC(N)=O)c(C(N)=O)n2)ccc1-c1ccc(O)cc1` [Example 274, 4-[(aminocarbonyl)amino]-1-(2-ethoxy-4′-hydroxy-1,1′-biphenyl-4-yl)-1H-pyrazole-3-carboxamide], the IC50 was over 20 µM.

`NC(=O)Nc1cn(-c2ccc(-c3ccccc3O)cc2F)nc1C(N)=O` [Example 249, 4-[(aminocarbonyl)amino]-1-(3-fluoro-2′-hydroxy-1,1′-biphenyl-4-yl)-1H-pyrazole-3-carboxamide]: the IC50 is 0.892 µM.

Take `CCOc1cc(-n2cc(NC(N)=O)c(C(N)=O)n2)ccc1-c1ccccc1O` [Example 232, 4-[(aminocarbonyl)amino]-1-(2-ethoxy-2′-hydroxy-1,1′-biphenyl-4-yl)-1H-pyrazole-3-carboxamide]: the IC50 was found to be 10.3 µM.

Take `NC(=O)Nc1cn(-c2ccc(-c3cccc(CO)c3)cc2)nc1C(N)=O` [Example 39, 4-[(aminocarbonyl)amino]-1-[3′-(hydroxymethyl)-1,1′-biphenyl-4-yl]-1H-pyrazole-3-carboxamide]: the IC50 was determined as 1.34 µM.

Take `NC(=O)Nc1cn(-c2ccc(-c3ccc[nH]3)cc2)nc1C(N)=O` [Example 26, 4-[(aminocarbonyl)amino]-1-[4-(1H-pyrrol-2-yl)phenyl]-1H-pyrazole-3-carboxamide]: the IC50 was determined as 0.59 µM.

Regarding `NC(=O)Nc1cn(-c2cccc(-c3cncnc3)c2)nc1C(N)=O` [Example 66, 4-[(aminocarbonyl)amino]-1-(3-pyrimidin-5-ylphenyl)-1H-pyrazole-3-carboxamide], the IC50 is 5.2 µM.

As for `NCc1cccc(-c2cccc(-n3cc(NC(N)=O)c(C(N)=O)n3)c2)c1` [Example 78, 4-[(aminocarbonyl)amino]-1-[3′-(aminomethyl)-1,1′-biphenyl-3-yl]-1H-pyrazole-3-carboxamide], the IC50 was determined as 0.81 µM.

For the compound `NC(=O)Nc1cn(-c2cccc(-c3ccc(C4CCCCC4)cc3)c2)nc1C(N)=O` [Example 375, 4-[(aminocarbonyl)amino]-1-(4′-cyclohexyl-1,1′-biphenyl-3-yl)-1H-pyrazole-3-carboxamide], the IC50 was over 20 µM.

Turning to `Cc1cccc(-c2ccc(-n3cc(NC(N)=O)c(C(N)=O)n3)cc2)c1` [Example 102, 4-[(aminocarbonyl)amino]-1-(3′-methyl-1,1′-biphenyl-4-yl)-1H-pyrazole-3-carboxamide], the IC50 came to 2.82 µM.

For `NC(=O)Nc1cn(-c2ccc(-c3ccc(C(=O)O)c(F)c3)cc2F)nc1C(N)=O` [Example 248, 4′-{3-(aminocarbonyl)-4-[(aminocarbonyl)amino]-1H-pyrazol-1-yl}-3,3′-difluoro-1,1′-biphenyl-4-carboxylic acid], the IC50 turned out to be 0.386 µM.

For the compound `NC(=O)Nc1cn(-c2ccc(-c3ccc(CO)cc3)cc2)nc1C(N)=O` [Example 38, 4-[(aminocarbonyl)amino]-1-[4′-(hydroxymethyl)-1,1′-biphenyl-4-yl]-1H-pyrazole-3-carboxamide], the IC50 turned out to be 0.83 µM.

For `NC(=O)Nc1cn(-c2ccc(S(=O)(=O)c3ccc(F)cc3)cc2Cl)nc1C(N)=O` [Example 377, 1-(1-(4-(4-fluorophenylsulfonyl)-2-chlorophenyl)-3-carbamoyl-1H-pyrazol-4-yl)urea], the IC50 stood at 0.113 µM.

With `N#CCOc1cccc(-c2ccc(-n3cc(NC(N)=O)c(C(N)=O)n3)cc2)c1` [Example 166, 4-[(aminocarbonyl)amino]-1-[3′-(cyanomethoxy)-1,1′-biphenyl-4-yl]-1H-pyrazole-3-carboxamide], the IC50 turned out to be 0.38 µM.

For `NC(=O)Nc1cn(-c2cccc(-c3ccccc3O)c2)nc1C(N)=O` [Example 71, 4-[(aminocarbonyl)amino]-1-(2′-hydroxy-1,1′-biphenyl-3-yl)-1H-pyrazole-3-carboxamide], the IC50 was 2.25 µM.

Take `CC(C)c1cccc(-c2ccc(-n3cc(C(N)=O)c(NC(N)=O)n3)cc2)c1` [Example 116]: the IC50 was 11 µM.

Take `NC(=O)Nc1cn(-c2ccc(SC3CCCCC3)cc2)nc1C(N)=O` [Example 189, 1-(3-carbamoyl-1-(4-(cyclohexylthio)phenyl)-1H-pyrazol-4-yl)urea]: the IC50 was 1.04 µM.

For the compound `CN(C)C(=O)COc1cccc(-c2ccc(-n3cc(NC(N)=O)c(C(N)=O)n3)cc2)c1` [Example 181, 4-[(aminocarbonyl)amino]-1-{3′-[2-(dimethylamino)-2-oxoethoxy]-1,1′-biphenyl-4-yl}-1H-pyrazole-3-carboxamide], the IC50 was 0.105 µM.

Turning to `NC(=O)Nc1cn(-c2cccc(-c3ccc(F)cc3)c2)nc1C(N)=O` [Example 42, 4-[(aminocarbonyl)amino]-1-(4′-fluoro-1,1′-biphenyl-3-yl)-1H-pyrazole-3-carboxamide], the concentration for half-maximal inhibition (IC50) was 9.22 µM.

For the compound `NC(=O)Nc1cn(-c2cccc(-c3ccc(CO)cc3)c2)nc1C(N)=O` [Example 48, 4-[(aminocarbonyl)amino]-1-[4′-(hydroxymethyl)-1,1′-biphenyl-3-yl]-1H-pyrazole-3-carboxamide], the IC50 is 1.04 µM.

For the compound `NC(=O)Nc1cn(-c2cccc(-c3cn[nH]c3)c2)nc1C(N)=O` [Example 57, 4-[(aminocarbonyl)amino]-1-[3-(1H-pyrazol-4-yl)phenyl]-1H-pyrazole-3-carboxamide], the IC50 came to 0.29 µM.

In the case of `NC(=O)Nc1cn(-c2ccc(-c3ccccc3CO)cc2)nc1C(N)=O` [Example 105, 4-[(aminocarbonyl)amino]-1-[2′-(hydroxymethyl)-1,1′-biphenyl-4-yl]-1H-pyrazole-3-carboxamide], the IC50 is 0.351 µM.
